# Key:
# [1] = tested on: brown dog tick (Rhipicephalus sanguineus); experiment: Residual efficacy against adult brown dog tick infestations on dogs, oral; assay type: in vivo; conditions: Day 32
# Description: Immediately following removal of D. variabilis ticks on Day 30, dogs were co-infested with approximately 50 adult, unfed brown dog ticks (R. sanguineus, approximately 50% male and 50% female) and approximately 100 adult, unfed cat fleas (C. felis, approximately 50% male and 50% female). Ticks and fleas were counted and removed on Day 32 (approximately 48 hours after infestation). GM percent efficacy of treatments against both tick species and fleas was calculated using the following formula: […]
# The therapeutic (knockdown) and residual efficacy of 7, administered orally at a point dose of 35 mg/kg bodyweight, was evaluated against adult tick (Dermacentor variabilis and Rhipicephalus sanguineus) and adult cat flea (Ctenocephalides felis) infestations on dogs. Twelve (12) male and female beagle dogs were allocated to either an untreated, negative control group or 7 group (n=6 dogs per group). Dogs were infested with approximately 50 unfed, adult D. variabilis ticks on Days −1, 5, 12, 19, 28, 35 and 42. On Day 0, dogs were orally administered gelatin capsules containing Compound 8194 (50% technical active, 47% microcrystalline cellulose and 3% croscarmellose sodium, w/w) at a point dose of 35 mg/kg. D. variabilis tick counts and classification were conducted on Day 1 (thumb count, approximately 24 hours after treatment) and Days 2, 7, 14, 21, 30, 37 and 44 (approximately 48 hours after treatment). Following removal of D. variabilis ticks on Day 30, all dogs were co-infested with approximately 50 unfed, adult brown dog ticks (R. sanguineus) and approximately 100 unfed, adult cat fleas (C. felis). Brown dog tick and cat flea counts were conducted on Day 32 (approximately 48 hours after infestation). GM percent efficacy of treatments against both tick species and fleas was calculated using the following formula: […]
# The therapeutic (knockdown) and residual efficacy of S-enantiomer, 9, administered orally at a point dose of 25 mg/kg bodyweight, was evaluated against adult tick (Dermacentor variabilis and Rhipicephalus sanguineus) and adult cat flea (Ctenocephalides felis) infestations on dogs. Twelve (12) male and female beagle dogs were allocated to either an untreated, negative control group or 9 group (n=6 dogs per group). Dogs were infested with approximately 50 unfed, adult D. variabilis ticks on Days −1, 5, 12, 19, and 28. On Day 0, dogs were orally administered gelatin capsules containing 9 (50% technical active, 47% microcrystalline cellulose and 3% croscarmellose sodium, w/w) at a point dose of 25 mg/kg. D. variabilis tick counts and classification were conducted on Day 1 (thumb count, approximately 24 hours after treatment) and Days 2, 7, 14, 21 and 30 (approximately 48 hours after treatment). Following removal of D. variabilis ticks on Day 30, all dogs were co-infested with approximately 50 unfed, adult brown dog ticks (R. sanguineus) and approximately 100 unfed, adult cat fleas (C. felis). Brown dog tick and cat flea counts were conducted on Day 32 (approximately 48 hours after infestation). GM percent efficacy of treatments against both tick species and fleas was calculated using the following formula: […]
# [2] = Tolerability of oral treatment in dogs; assay type: in vivo, dog
# Description: The therapeutic (knockdown) and residual efficacy of 5, administered orally at a point dose of 25 mg/kg bodyweight, was evaluated against adult American dog tick (D. variabilis) infestations on dogs. Six beagle dogs were allocated to one of two treatment groups, an untreated control group (n=4 dogs) or 5 group (n=2 dogs). On Day 0, two dogs were treated with 5 via oral gavage (25 mg/ml 5, dissolved in a solution of 55% polyethylene glycol-300, 35% propylene glycol and 10% water) at a point dose of approximately 25 mg/kg. Twenty-four (24) hours before treatment (Day −1), all dogs were infested with approximately 50 unfed, adult-stage American dog ticks (D. variabilis; approximately 50% male and 50% female). On Day 1, approximately 24 hours after treatment, thumb counts were conducted to determine the number and life-status classification of ticks present on all dogs (normal, moribund or dead; attached or detached). Ticks were not removed during thumb counts. On Day 2, approximately 48 hours after treatment, all ticks were classified and removed from dogs. Dogs were re-infested with approximately 50 unfed, adult D. variabilis ticks on Days 5 and 12, with tick classification, counts and removal on Days 7 and 14 (approximately 48 hours after each infestation).
# The therapeutic (knockdown) and residual efficacy of 7 and 8, each administered orally at a point dose of 25 mg/kg bodyweight, was evaluated against adult tick (Dermacentor variabilis and Rhipicephalus sanguineus) and adult cat flea (Ctenocephalides felis) infestations on dogs. Twelve (12) male and female beagle dogs were randomly allocated to one of three treatment groups, four (4) dogs per group: Untreated control; 7, 25 mg/kg; and 8, 25 mg/kg. On Day −1, all dogs were infested with approximately 50 unfed, adult D. variabilis ticks. On Day 0, dogs were orally administered gelatin capsules containing either 7 or 8 (50% technical active, 47% microcrystalline cellulose and 3% croscarmellose sodium, w/w). Ticks were counted and classified, but not removed, on all dogs on Day 1, approximately 24 hours after treatment. On Day 2, approximately 48 hours after treatment, ticks were counted, classified and removed. Dogs were re-infested with the same number of D. variabilis ticks on Days 5, 12, 19 and 28 and tick counts were conducted on Days 7, 14, 21 and 30.
# The therapeutic (knockdown) and residual efficacy of 7, administered orally at a point dose of 35 mg/kg bodyweight, was evaluated against adult tick (Dermacentor variabilis and Rhipicephalus sanguineus) and adult cat flea (Ctenocephalides felis) infestations on dogs. Twelve (12) male and female beagle dogs were allocated to either an untreated, negative control group or 7 group (n=6 dogs per group). Dogs were infested with approximately 50 unfed, adult D. variabilis ticks on Days −1, 5, 12, 19, 28, 35 and 42. On Day 0, dogs were orally administered gelatin capsules containing Compound 8194 (50% technical active, 47% microcrystalline cellulose and 3% croscarmellose sodium, w/w) at a point dose of 35 mg/kg. […] GM percent efficacy of treatments against both tick species and fleas was calculated using the following formula: […]
# The therapeutic efficacy and speed of kill of 7, administered orally at a point dose of 20 mg/kg bodyweight, was evaluated against adult cat flea (Ctenocephalides felis) infestations on dogs. […]
# [3] = tested on: cat flea (Ctenocephalides felis); experiment: Therapeutic efficacy and speed of kill against adult cat flea infestations on dogs, oral; assay type: in vivo; conditions: oral capsule 20 mg/kg
# Description: The therapeutic efficacy and speed of kill of 7, administered orally at a point dose of 20 mg/kg bodyweight, was evaluated against adult cat flea (Ctenocephalides felis) infestations on dogs. Eighteen (18) male and female beagle dogs were allocated to one of six treatment groups (n=3 dogs per group). Groups 1, 2 and 3 were untreated, negative controls and groups 4, 5 and 6 received 7. On Day −1, all dogs were infested with approximately 100 unfed, adult fleas (approximately 50% male and 50% female). On Day 0, dogs in groups 4, 5 and 6 were orally administered gelatin capsules containing 7, at a point dose of 20 mg/kg (50% technical active, 47% microcrystalline cellulose and 3% croscarmellose sodium, w/w). At eight (8) hours post-treatment, fleas were counted and removed from dogs in groups 1 and 4; at twelve (12) hours post-treatment, fleas were counted and removed from dogs in groups 2 and 5; and at twenty-four (24) hours post-treatment, fleas were counted and removed from dogs in groups 3 and 6. GM percent efficacy of treatments against fleas was calculated using the following formula: […]
# [4] = Example 7, oral capsule 35 mg/kg
structure (smiles),measurement,setting,value
"Cc1cc(C2=NOC(c3cc(Cl)c(Cl)c(Cl)c3)(C(F)(F)F)C2)ccc1C(=O)NCc1ccc2c(c1)B(O)OC2(C)C (stereo not shown) [Compound 7, N-((1-Hydroxy-3,3-dimethyl-1,3-dihydrobenzo[c][1,2]oxaborol-6-yl)methyl)-2-methyl-4-(5-(3,4,5-trichlorophenyl)-5-(trifluoromethyl)-4,5-dihydroisoxazol-3-yl)benzamide]",Residual efficacy,[1]; [4],98.7%
same,Geometric mean group live parasite counts,"[1]; Table 2, oral capsule 25 mg/kg",4.8
same,tolerability,"[2]; Example 6, oral capsule 25 mg/kg",well tolerated
same,tolerability,[2]; [4],well tolerated
same,% efficacy,[3]; 8 hours post-treatment,(90.4) %
same,Geometric mean group live flea counts,[3]; 8 hours post-treatment,7.9
same,Geometric mean group live flea counts,[3]; 12 hours post-treatment,0.0
same,% efficacy,[3]; 24 hours post-treatment,(100) %
same,Geometric mean group live flea counts,[3]; 24 hours post-treatment,0.0
same,knockdown against an existing flea infestation,[3]; eight (8) hours of treatment,rapid knockdown

# From US8546357B2, “Boron-containing small molecules for controlling ectoparasites” (priority 2011, dated 2013)
